Consider 2 compounds from US11110102B2, “Antifungal agents used in combination” (Scynexis, Inc., priority 2017, dated 2021).

Where “and” joins values, the source holds several entries; their conditions need not be identical. Equal entries are not always repeated.

The term MIC denotes the lowest concentration found to suppress growth.

Holding throughout (test): Checkerboard combination MIC testing
What all share (format): cell-based, Aspergillus fumigatus

Test [1] relates to A. fumigatus MRL #28382. As to conditions: A. fumigatus MRL 28382 (wild-type), read at 48 hours, duplicate. The text has this: (§1) To determine the type of interaction between a representative compound of the enfumafungin derivatives (SCY-078) with several antifungal agents against Aspergillus fumigatus, the most frequent mold causing invasive disease in humans, the checkerboard method was used. The citrate salt of the compound was used in the studies.
(§2) The checkerboard method involves the determination of percent growth inhibition of fungal cells in the presence of different combinations of drugs. Percent growth inhibition is calculated relative to growth in control wells which contain only cells and no drug. The assay was performed in 96-well microplates in which each row and each column contained twofold serial dilutions of drug A and drug B at concentrations ranging from 0 to slightly higher than their minimum inhibitory concentration (MIC). […] Then the inoculum was added to each well and the growth was evaluated after 48 hrs incubation to determine the first well in which growth was inhibited. The checkerboard-based determination of MICs of antifungal agents in combination was followed by further analysis employing the nonparametric fractional inhibitory concentration index (FICI), which is defined by the following equation:
(§3) [formula] where MIC-A and MIC-B are the MICs of drugs A and B, respectively.
(§4) Each drug was initially diluted in either sterile, distilled water or in DMSO, depending on whether the drug was water-soluble or water-insoluble, respectively.
(§5) Stock solution of SCY-078 was prepared in DMSO at 200 times the concentration desired for use in the drug plates. Serial dilutions of stock solution were conducted in DMSO to obtain eleven 2-fold dilutions of the drug. The SCY-078 solution was then diluted to 4 times the desired concentration in RPMI-1640 medium so that the DMSO would not limit growth of the organism and so that the quantity of DMSO was the same for every dilution.
(§6) Two 96-well plates are needed to conduct a combination test. Using a multichannel pipette, 50 μl of the lowest concentration of the first drug (Drug A) was added to each well of column 1 of the first plate (plate A) and column 1 of the second plate (plate B; rows A-D). Then, 50 μl of the next highest working dilution of Drug A was added to each well in column 2, continuing with dilutions until all columns 1-11 were filled. Column 12 was left empty. 50 μl of the lowest concentration of Drug B was added to each well in Row D of plate B. 50 μl of the next highest working dilution of Drug B was added to each well in row C of plate B, continuing with dilutions until all rows through row B of plate A were filled.
(§7) Following the above, 100 μl of organism inoculum was added to every well. The plates were then incubated for 48 hours and visually read after incubation.
(§8) The objective of the study was to determine whether the combination of SCY-078 with voriconazole, isavuconazole, or amphotericin B would result in a combined in vitro antifungal activity exceeding the sum of the activities of each drug alone. Combination MIC testing was performed using the checkerboard assay described above.
(§9) Initial MIC determinations of the individual antifungals were performed according to the Clinical and Laboratory Standards Institute (CLSI) M38-A2 standard for the susceptibility testing of filamentous fungi.
(§10) Combination MIC testing was performed using a checkerboard test method according to the Center for Medical Mycology SOP A11.3. The checkerboard combination test method is a modification of the microdilution antifungal susceptibility test wherein two test compounds are combined in varying concentrations to determine whether they have synergistic, antagonistic, or no effect on the respective MIC values.
(§11) Antifungals were serially diluted two-fold in RPMI medium to produce eleven concentrations each and were combined in wells of a microtiter plate. Two rows consisting of serial dilutions of each individual drug were included. All combination testing was conducted in duplicate. […]

The subject of test [2] is A. fumigatus MRL #28383. The note with it: A. fumigatus MRL 28383 (azole-resistant), read at 48 hours, duplicate.
Source text: as §1, §2, §3, §4, §5, §6, §7, §8, §9, §10, §11

Test [3] deals with A. fumigatus MRL #20438. The note with it: A. fumigatus MRL 20438 (wild-type), read at 48 hours, duplicate.
Source text: as §1, §2, §3, §4, §5, §6, §7, §8, §9, §10, §11

Test [4] has as its system A. fumigatus MRL #28378. As to conditions: A. fumigatus MRL 28378 (wild-type), read at 48 hours, duplicate.
Source text: as §1, §2, §3, §4, §5, §6, §7, §8, §9, §10, §11

Test [5] deals with A. fumigatus MRL #28401. The note with it: A. fumigatus MRL 28401 (wild-type), read at 48 hours, duplicate.
Source text: as §1, §2, §3, §4, §5, §6, §7, §8, §9, §10, §11

The subject of test [6] is A. fumigatus MRL #28500. As to conditions: read at 48 hours, duplicate.
Source text: as §1, §2, §3, §4, §5, §6, §7, §8
A. fumigatus 28500 has a CYP51 mutation at F46Y.
as §9, §10
Antifungals were serially diluted two-fold in RPMI medium to produce eleven concentrations each and were combined in wells of a microtiter plate. Two rows consisting of serial dilutions of each individual drug were included. […]

Where [7] appears, read: SCY-078 combined with amphotericin B.
[8] abbreviates: drug alone, SCY-078/amphotericin B test.
Setting [9] is: SCY-078 combined with voriconazole.
The mark [10] stands for this setting: Aspergillus fumigatus, SCY078, 48 h, drug alone, SCY-078/voriconazole test, read-out: MIC Alone.

Consider `C[C@@H]1[C@H](O)[C@@H](C)/C=C/C=C/C=C/C=C/C=C/C=C/C=C/[C@H](O[C@@H]2O[C@H](C)[C@@H](O)[C@H](N)[C@@H]2O)C[C@@H]2O[C@](O)(C[C@@H](O)C[C@@H](O)[C@H](O)CC[C@@H](O)C[C@@H](O)CC(=O)O[C@H]1C)C[C@H](O)[C@H]2C(=O)O` [Amphotericin B, amphotericin B], for which the “MIC in Combination” value in test [1] (setting [7]) was 1 µg/mL and 0.5 µg/mL; in test [2] (setting [7]) it was 4 µg/mL and 2 µg/mL; in test [3] (setting [7]), 0.5 µg/mL; in test [4] (setting [7]) it was 0.5 µg/mL; in test [5] (setting [7]), 1 µg/mL and 0.5 µg/mL; in test [6] (A. fumigatus MRL 28500 (azole-resistant, CYP51 F46Y), SCY-078 combined with amphotericin B), 1 µg/mL. Besides, the “MIC Alone” value in test [1] (setting [8]) is 4 µg/mL; in test [2] (setting [8]) it was 4 µg/mL and 2 µg/mL; in test [3] (setting [8]), 4 µg/mL; in test [4] (setting [8]), 2 µg/mL; in test [5] (setting [8]), 4 µg/mL; in test [6] (A. fumigatus MRL 28500 (azole-resistant, CYP51 F46Y), drug alone, SCY-078/amphotericin B test) it was 4 µg/mL.

Regarding `C[C@@H](c1ncncc1F)[C@](O)(Cn1cncn1)c1ccc(F)cc1F` [Voriconazole, voriconazole], the “MIC in Combination” value in test [1] (setting [9]) is 0.125 µg/mL and 0.25 µg/mL; in test [2] (setting [9]), above 16 µg/mL; in test [3] (setting [9]), 0.25 µg/mL; in test [5] (setting [9]) it was 0.5 µg/mL; in test [6] (A. fumigatus MRL 28500 (azole-resistant, CYP51 F46Y), SCY-078 combined with voriconazole), above 16 µg/mL. Besides, the minimal inhibitory concentration (MIC) is 0.5 µg/mL in test [1] (setting [10]); above 16 µg/mL in test [2] (setting [10]); 1 µg/mL in test [3] (setting [10]); 0.5 µg/mL in test [4] (setting [10]); 2 µg/mL in test [5] (setting [10]); above 16 µg/mL in test [6] (Aspergillus fumigatus, SCY078, 48 h, read-out: MIC Alone, A. fumigatus MRL 28500 (azole-resistant, CYP51 F46Y), drug alone, SCY-078/voriconazole test). Moreover, the “MIC Alone” value in test [4] (drug alone, SCY-078/voriconazole test) amounted to 0.25 µg/mL.
